# Measured values: article PMC2211560 (PLoS Medicine, 2008)
# Values joined by “and” are separate entries in the source; they are usually repeats but may differ in a detail not shown here. Identical values can stand only once. Like-named read-outs stand apart in the source and are kept apart here.
# Experiments:
# [1] = tested on: recurrent PTEN-deficient glioblastoma; assay: Clinical outcome: time-to-progression and radiographic response; assay type: in vivo, human; conditions: for TTP: interval between start of rapamycin and postoperative treatment failure, individual patients
# From the text: Figure 1 Clinical Trial Design Enrollment in the Phase I clinical trial was restricted to patients whose initial tumor resection (“surgery 1”) specimen was PTEN-deficient by immunohistochemistry. Patients were enrolled after failing standard therapy with radiation and chemotherapy (i.e., “tumor recurrence”).
# Patients were allowed two dose reductions.
# [2] = in vivo
# Description: Adverse events were evaluated according to the National Cancer Institute Common Toxicity Criteria, version 2 (http://ctep.info.nih.gov/reporting/index.html).
# The first three patients were enrolled at the initial dose level of 2 mg per day. After a four week evaluation period for dose limiting toxicity, a minimum of 3 more patients could be enrolled at the next dose level. […] Presurgical dosing included the loading dose followed by the daily maintenance dose until surgery. After the patient recovered from the effects of surgery, identical loading and maintenance doses (e.g., 6 mg and 2 mg, respectively) were administered. […] Assessment of drug safety was done following a routine schedule and supplemented by additional evaluation whenever a patient reported a new symptom. […] Toxicities were graded according to the National Cancer Institute Common Toxicity Criteria version 2.0. Treatments were held until recovery to ≤ grade 1 toxicity for ANC < 1000/µl, platelets < 80,000/ µl, grade 3 or grade 4 non-hematologic toxicities, and grade 4 hypercholesterolemia or hypertryglyceridemia. […] A 50 % dose reduction was made for ANC < 750/µl, platelets < 50,000/µl, or grade 4 non-hematological AE. Patients were allowed two dose reductions.
# PTEN-null cell lines = tested on: PTEN-null cell lines; parameters: method as in PMID 11504908, PMID 11566616; conditions: PTEN-null cell lines in vitro; cited from earlier work
# [3] = human, in vivo, cited from earlier work
# [4] = tested on: cytochrome P450 isoenzyme 3A4; conditions: cited from earlier work
# [5] = cited from earlier work; for mucosal HERPES SIMPLEX infections, patients: phase III trial, with cyclosporine and corticosteroids, ref MacDonald et al, 2001
smiles,measurement,setting,value
CO[C@H]1C[C@@H]2CC[C@@H](C)[C@@](O)(O2)C(=O)C(=O)N2CCCC[C@H]2C(=O)O[C@H]([C@H](C)C[C@@H]2CC[C@@H](O)[C@H](OC)C2)CC(=O)[C@H](C)/C=C(\C)[C@@H](O)[C@@H](OC)C(=O)[C@H](C)C[C@H](C)/C=C/C=C/C=C/1C [Rapamycin],TTP,[1]; 2 mg oral daily,62 days and 40 days and 70 days
same,TTP,[1]; 5 mg oral daily,194 days and 69 days and 144 days and 153 days and 42 days
same,TTP,[1]; 10 mg oral daily,39 days and 538 days and 98 days and 146 days and 99 days and 55 days
same,tumor regression by magnetic resonance imaging,"[1]; Patient 8, extended neoadjuvant course (25 d), 5 mg, prior to surgery",> 50%
same,duration of radiographically stable disease postoperatively,[1]; Patient 11,> 16 mo
same,time from starting rapamycin to death without evidence of tumor recurrence,"[1]; Patient 11, 10 mg",538 days
same,Radiographic Response to Rapamycin,"[1]; single-agent rapamycin, study patients",2/15
same,grade 3 or 4 toxicities,[2]; human,No grade 3 or 4 toxicities
same,"patients with grade 3 adverse events (hypokalemia, hypercholesterolemia, and cytopenias)",[2]; human,Five of 15
same,"patients with grade 3 adverse events (hypokalemia, hypercholesterolemia, and cytopenias)",[2],five
same,perioperative bleeding complications,[2],no perioperative bleeding complications
same,Rapamycin concentrations known to confer antiproliferative activity,PTEN-null cell lines,~1 nM
same,Vdss,[3]; iv,1.1 to 1.3 L/kg
same,half-life,[3],40 to 60 h
same,cytochrome P450 substrate,[4],substrate for the cytochrome P450 isoenzyme 3A4
same,"ANEMIA, patients","[5]; human, in vivo",27-37%
same,ARTHRALGIA,"[5]; human, in vivo",25-31%
same,CONSTIPATION,"[5]; human, in vivo",28-36%
same,DIARRHEA,"[5]; human, in vivo",25-42%
same,DYSPEPSIA,"[5]; human, in vivo",17-25%
same,"DYSPNEA, patients","[5]; human, in vivo",22-30%
same,"EPISTAXIS, patients","[5]; human, in vivo",9%
same,"HEADACHE, patients","[5]; human, in vivo",23-34%
same,"HYPERTENSION, patients","[5]; human, in vivo",43-45%
same,"HYPOKALEMIA, patients","[5]; human, in vivo",11-21%
same,"HYPOPHOSPHATEMIA, patients","[5]; human, in vivo",15-23%
same,Hyperlipidemia,"[5]; human, in vivo",38-57%
same,NAUSEA,"[5]; human, in vivo",25-36%
same,Normalization of platelet counts after discontinuation,"[5]; human, in vivo",≤ 2 weeks
same,"Peripheral EDEMA, patients","[5]; human, in vivo",54-64%
same,Posttransplant lymphoproliferative disease (PTLD),"[5]; human, in vivo",0.8%
same,"THROMBOCYTOPENIA, patients","[5]; human, in vivo",13-30%
same,VOMITING,"[5]; human, in vivo",19-25%
same,"arthralgia, patients","[5]; human, in vivo",23%
same,hypercholesterolemia,"[5]; human, in vivo",38-46%
same,"insomnia, patients","[5]; human, in vivo",13-22%
same,patients with triglyceride levels exceeding 5 mmol/L,"[5]; human, in vivo",75%
same,total cholesterol mean peak,"[5]; human, in vivo",12 mmol/L
same,"tremor, patients","[5]; human, in vivo",21-31%
same,"mucosal HERPES SIMPLEX infections, patients",[5]; sirolimus 2 mg/day,10%
same,"mucosal HERPES SIMPLEX infections, patients",[5]; sirolimus 5 milligrams (mg)/day,19%
